By pIC50 is commonly meant the IC50 on a negative log10 scale, so that one unit is a factor of ten.

pIC50: −log10 of the molar value.

The target in this assay is T1, human neutrophil elastase (HNE) (Homo sapiens, UniProt P08246).
T1 construct: purchased Sigma E8140
T1 sequence (P08246 30-247 limits assumed): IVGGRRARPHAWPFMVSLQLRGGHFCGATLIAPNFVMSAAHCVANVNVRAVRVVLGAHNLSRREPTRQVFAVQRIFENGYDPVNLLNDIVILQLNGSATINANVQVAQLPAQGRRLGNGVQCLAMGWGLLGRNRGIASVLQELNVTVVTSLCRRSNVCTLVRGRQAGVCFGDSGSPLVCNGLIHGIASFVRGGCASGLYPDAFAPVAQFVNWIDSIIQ
Nature of the assay: HNE enzyme activity assay (fluorogenic peptide substrate MeOSuc-Ala-Ala-Pro-Val-AMC). In kind it is biochemical. The following applies: human leukocyte elastase 0.00072 U/mL, substrate 100 μM, 25° C., 30 minutes, pH 7.5; at least two separate experiments; read-out: FINE inhibition (HNE enzyme inhibition, IC50 values). As to the method:
Compounds of this invention were tested for potency in a human neutrophil elastase (HNE) enzyme activity assay.
Assays were performed in 96-well plates in a total assay volume of 100 μL. The final concentration of elastase enzyme (human leukocyte elastase, Sigma E8140) was 0.00072 U/mL. The peptide substrate (MeOSuc-Ala-Ala-Pro-Val-AMC, Calbiochem #324740) was used at a final concentration of 100 μM. The final concentration of DMSO was 1% in the assay buffer (0.05M Tris.HCl, 0.1M NaCl, 0.1M CaCl2, 0.0005% brij-35, pH 7.5). The enzymatic reaction was started by addition of the enzyme and incubated at 25° C. for 30 minutes. After incubation, the reaction was stopped by addition of soybean trypsin inhibitor (Sigma T9003) at a final concentration of 50 μg/well. Fluorescence was measured using a Molecular Devices fluorescence plate reader using 380 nm excitation and 460 nm emission wavelengths.
A dose response to each compound was performed and the effect of compound in each experiment was expressed as a percentage inhibition of the control enzyme fluorescence. Dose response curves were plotted and compound potency (IC50) was determined. Compounds were tested in at least two separate experiments.
Take `Cc1c(-c2ccnn2-c2ccc(C#N)cc2)n(C(=O)NC2CC2)c(=O)n1-c1cccc(C(F)(F)F)c1` [Example 42, 5-[2-(4-Cyano-phenyl)-2H-pyrazol-3-yl]-4-methyl-2-oxo-3-(3-trifluoromethyl-phenyl)-2,3-dihydro-imidazole-1-carboxylic acid cyclopropylamide]: the pIC50 is more than 9.00.
For the compound `CCS(=O)(=O)N1CCC(NC(=O)n2c(-c3ccnn3-c3ccc(C#N)cc3)c(C)n(-c3cccc(C(F)(F)F)c3)c2=O)CC1` [Example 43, 5-[2-(4-Cyano-phenyl)-2H-pyrazol-3-yl]-4-methyl-2-oxo-3-(3-trifluoromethyl-phenyl)-2,3-dihydro-imidazole-1-carboxylic acid (1-ethanesulfonyl-piperidin-4-yl)-amide], the pIC50 was more than 9.00.
As to `Cc1c(-c2ccnn2-c2ccc(C#N)cc2)n(C(=O)NC2CCOCC2)c(=O)n1-c1cccc(C(F)(F)F)c1` [Example 44, 5-[2-(4-Cyano-phenyl)-2H-pyrazol-3-yl]-4-methyl-2-oxo-3-(3-trifluoromethyl-phenyl)-2,3-dihydro-imidazole-1-carboxylic acid (tetrahydro-pyran-4-yl)-amide], the pIC50 is more than 9.00.
With `Cc1c(-c2ccnn2-c2ccc(C#N)cc2)n(C(=O)NC2CCCC2)c(=O)n1-c1cccc(C(F)(F)F)c1` [Example 45, 5-[2-(4-Cyano-phenyl)-2H-pyrazol-3-yl]-4-methyl-2-oxo-3-(3-trifluoromethyl-phenyl)-2,3-dihydro-imidazole-1-carboxylic acid cyclopentylamide], the pIC50 is more than 9.00.
For `Cc1c(-c2ccnn2-c2ccc(C#N)cc2)n(C(=O)N[C@@H]2CCN(C)C2)c(=O)n1-c1cccc(C(F)(F)F)c1` [Example 46, 5-[2-(4-Cyano-phenyl)-2H-pyrazol-3-yl]-4-methyl-2-oxo-3-(3-trifluoromethyl-phenyl)-2,3-dihydro-imidazole-1-carboxylic acid ((R)-1-methyl-pyrrolidin-3-yl)-amide], the pIC50 was more than 9.00.
For the compound `Cc1c(-c2ccnn2-c2ccc(C#N)cc2)n(C(=O)N[C@H]2CCN(C)C2)c(=O)n1-c1cccc(C(F)(F)F)c1` [Example 47, 5-[2-(4-Cyano-phenyl)-2H-pyrazol-3-yl]-4-methyl-2-oxo-3-(3-trifluoromethyl-phenyl)-2,3-dihydro-imidazole-1-carboxylic acid ((S)-1-methyl-pyrrolidin-3-yl)-amide], the pIC50 is more than 9.00.
As to `Cc1c(-c2ccnn2-c2ccc(C#N)cc2)n(C(=O)NCc2ccccn2)c(=O)n1-c1cccc(C(F)(F)F)c1` [Example 49, 5-[2-(4-Cyano-phenyl)-2H-pyrazol-3-yl]-4-methyl-2-oxo-3-(3-trifluoromethyl-phenyl)-2,3-dihydro-imidazole-1-carboxylic acid (pyridin-2-ylmethyl)-amide], the pIC50 is 8.00 to 9.00.
The figure for `Cc1c(-c2ccnn2-c2ccc(C#N)cc2)n(C(=O)NCc2cccnc2)c(=O)n1-c1cccc(C(F)(F)F)c1` [Example 50, 5-[2-(4-Cyano-phenyl)-2H-pyrazol-3-yl]-4-methyl-2-oxo-3-(3-trifluoromethyl-phenyl)-2,3-dihydro-imidazole-1-carboxylic acid (pyridin-3-ylmethyl)-amide] is 8.00 to 9.00; for `Cc1c(-c2ccnn2-c2ccc(C#N)cc2)n(C(=O)NCc2ccncc2)c(=O)n1-c1cccc(C(F)(F)F)c1` [Example 51, 5-[2-(4-Cyano-phenyl)-2H-pyrazol-3-yl]-4-methyl-2-oxo-3-(3-trifluoromethyl-phenyl)-2,3-dihydro-imidazole-1-carboxylic acid (pyridin-4-ylmethyl)-amide] it is more than 9.00.
Next, `Cc1c(-c2ccnn2-c2ccc(C#N)cc2)n(C(=O)NCc2cnccn2)c(=O)n1-c1cccc(C(F)(F)F)c1` [Example 52, 5-[2-(4-Cyano-phenyl)-2H-pyrazol-3-yl]-4-methyl-2-oxo-3-(3-trifluoromethyl-phenyl)-2,3-dihydro-imidazole-1-carboxylic acid (pyrazin-2-ylmethyl)-amide]: 8.00 to 9.00; `Cc1c(-c2ccnn2-c2ccc(C#N)cc2)n(C(=O)N[C@@H]2CCC[C@H]2O)c(=O)n1-c1cccc(C(F)(F)F)c1` [Example 53, 5-[2-(4-Cyano-phenyl)-2H-pyrazol-3-yl]-4-methyl-2-oxo-3-(3-trifluoromethyl-phenyl)-2,3-dihydro-imidazole-1-carboxylic acid ((1R,2R)-2-hydroxy-cyclopentyl)-amide]: more than 9.00; `Cc1c(-c2ccnn2-c2ccc(C#N)cc2)n(C(=O)NCC2CCN(C)CC2)c(=O)n1-c1cccc(C(F)(F)F)c1` [Example 54, 5-[2-(4-Cyano-phenyl)-2H-pyrazol-3-yl]-4-methyl-2-oxo-3-(3-trifluoromethyl-phenyl)-2,3-dihydro-imidazole-1-carboxylic acid (1-methyl-piperidin-4-ylmethyl)-amide]: 8.00 to 9.00.
For the compound `Cc1c(-c2ccnn2-c2ccc(C#N)cc2S(C)(=O)=O)[nH]c(=O)n1-c1cccc(C(F)(F)F)c1` [Example 55, 3-Methanesulfonyl-4-{5-[5-methyl-2-oxo-1-(3-trifluoromethyl-phenyl)-2,3-dihydro-1H-imidazol-4-yl]-pyrazol-1-yl}-benzonitrile], the pIC50 was less than 7.30.
The figure for `Cc1c(-c2ccnn2-c2ccc(C#N)cc2Br)n(C(=O)NC2CCCC2)c(=O)n1-c1cccc(C(F)(F)F)c1` [Example 56, 5-[2-(2-Bromo-4-cyano-phenyl)-2H-pyrazol-3-yl]-4-methyl-2-oxo-3-(3-trifluoromethyl-phenyl)-2,3-dihydro-imidazole-1-carboxylic acid cyclopentylamide] is 8.00 to 9.00.
Regarding `Cc1c(-c2ccn(-c3ccc(C#N)cc3Br)n2)n(C(=O)NC2CCCC2)c(=O)n1-c1cccc(C(F)(F)F)c1` [Example 57, 5-[1-(2-Bromo-4-cyano-phenyl)-1H-pyrazol-3-yl]-4-methyl-2-oxo-3-(3-trifluoromethyl-phenyl)-2,3-dihydro-imidazole-1-carboxylic acid cyclopentylamide], the pIC50 was 7.30 to 8.00.
The figure for `Cc1c(-c2ccnn2-c2ccc(C#N)cc2F)n(C(=O)NC2CCCC2)c(=O)n1-c1cccc(C(F)(F)F)c1` [Example 58, 5-[2-(4-Cyano-2-fluoro-phenyl)-2H-pyrazol-3-yl]-4-methyl-2-oxo-3-(3-trifluoromethyl-phenyl)-2,3-dihydro-imidazole-1-carboxylic acid cyclopentylamide] is more than 9.00; for `Cc1c(-c2nccn2-c2ccc(C#N)cc2)[nH]c(=O)n1-c1cccc(C(F)(F)F)c1` [Example 59, 4-[5′-Methyl-2′-oxo-1′-(3-trifluoromethyl-phenyl)-2′,3′-dihydro-1′H-[2,4]biimidazolyl-1-yl]-benzonitrile] it is 7.30 to 8.00; for `Cc1c(-c2nccn2-c2ccc(C#N)cc2)n(C(=O)NC2CCCC2)c(=O)n1-c1cccc(C(F)(F)F)c1` [Example 60, 1-(4-Cyano-phenyl)-5′-methyl-2′-oxo-1′-(3-trifluoromethyl-phenyl)-1′,2′-dihydro-1H-[2,4]biimidazolyl-3′-carboxylic acid cyclopentylamide] it is more than 9.00.
The figure for `Cc1c(-c2nccn2-c2ccc(C#N)cc2)n(C(=O)NC2CCC2)c(=O)n1-c1cccc(C(F)(F)F)c1` [Example 61, 1-(4-Cyano-phenyl)-5′-methyl-2′-oxo-1′-(3-trifluoromethyl-phenyl)-1′,2′-dihydro-1H-[2,4′]biimidazolyl-3′-carboxylic acid cyclobutylamide] is more than 9.00.
The figure for `Cc1c(-c2nccn2-c2ccc(C#N)cc2)n(C(=O)NCc2ccc(S(C)(=O)=O)cc2)c(=O)n1-c1cccc(C(F)(F)F)c1` [Example 62, 1-(4-Cyano-phenyl)-5′-methyl-2′-oxo-1′-(3-trifluoromethyl-phenyl)-1′,2′-dihydro-1H-[2,4′]biimidazolyl-3′-carboxylic acid 4-methanesulfonyl-benzylamide] is more than 9.00.
On to `Cc1c(-c2ncnn2-c2ccc(C#N)cc2)n(C(=O)NC2CCCC2)c(=O)n1-c1cccc(C(F)(F)F)c1` [Example 63, 5-[2-(4-Cyano-phenyl)-2H-[1,2,4]triazol-3-yl]-4-methyl-2-oxo-3-(3-trifluoromethyl-phenyl)-2,3-dihydro-imidazole-1-carboxylic acid cyclopentylamide], for which the pIC50 was more than 9.00.

The record behind these values is patent publication US9409870B2, “Compounds” (CHIESI FARMACEUTICI S.p.A., priority 2014, dated 2016).
